Assay results: PubChem BioAssay (NCI)
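Exposure lasted 48 hours, with cells grown in 96-well plates and compounds tested at five concentrations. GI50 marks 50% less growth. TGI denotes the concentration required for complete inhibition of growth.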

Columns and labels:
Experiment in all cases: NCI tumour cell line growth inhibition, 48 h
786-0 renal = tested on: 786-0 renal
A498 renal = tested on: A498 renal
A549 NSCLC = tested on: A549 NSCLC
ACHN renal = tested on: ACHN renal
BT-549 breast = tested on: BT-549 breast
CAKI-1 renal = tested on: CAKI-1 renal
CCRF-CEM leukemia = tested on: CCRF-CEM leukemia
COLO 205 colon = tested on: COLO 205 colon
DU-145 prostate = tested on: DU-145 prostate
EKVX NSCLC = tested on: EKVX NSCLC
HCC-2998 colon = tested on: HCC-2998 colon
HCT-116 colon = tested on: HCT-116 colon
HCT-15 colon = tested on: HCT-15 colon
HL-60(TB) leukemia = tested on: HL-60(TB) leukemia
HOP-62 NSCLC = tested on: HOP-62 NSCLC
HOP-92 NSCLC = tested on: HOP-92 NSCLC
HS 578T breast = tested on: HS 578T breast
HT29 colon = tested on: HT29 colon
IGROV1 ovarian = tested on: IGROV1 ovarian
K-562 leukemia = tested on: K-562 leukemia
KM12 colon = tested on: KM12 colon
LOX IMVI melanoma = tested on: LOX IMVI melanoma
M14 melanoma = tested on: M14 melanoma
MALME-3M melanoma = tested on: MALME-3M melanoma
MCF7 breast = tested on: MCF7 breast
MDA-MB-231 breast = tested on: MDA-MB-231 breast
MDA-MB-435 = tested on: MDA-MB-435
MDA-MB-468 breast = tested on: MDA-MB-468 breast
MOLT-4 leukemia = tested on: MOLT-4 leukemia
NCI-H226 lung = tested on: NCI-H226 lung
NCI-H23 lung = tested on: NCI-H23 lung
NCI-H460 lung = tested on: NCI-H460 lung
NCI-H522 lung = tested on: NCI-H522 lung
NCI/ADR-RES ovarian = tested on: NCI/ADR-RES ovarian
OVCAR-3 ovarian = tested on: OVCAR-3 ovarian
OVCAR-4 ovarian = tested on: OVCAR-4 ovarian
OVCAR-5 ovarian = tested on: OVCAR-5 ovarian
OVCAR-8 ovarian = tested on: OVCAR-8 ovarian
PC-3 prostate = tested on: PC-3 prostate
RPMI-8226 leukemia = tested on: RPMI-8226 leukemia
RXF 393 renal = tested on: RXF 393 renal
SF-268 CNS = tested on: SF-268 CNS
SF-295 CNS = tested on: SF-295 CNS
SF-539 CNS = tested on: SF-539 CNS
SK-MEL-2 melanoma = tested on: SK-MEL-2 melanoma
SK-MEL-28 melanoma = tested on: SK-MEL-28 melanoma
SK-MEL-5 melanoma = tested on: SK-MEL-5 melanoma
SK-OV-3 ovarian = tested on: SK-OV-3 ovarian
SN12C renal = tested on: SN12C renal
SNB-19 CNS = tested on: SNB-19 CNS
SNB-75 CNS = tested on: SNB-75 CNS
SR leukemia = tested on: SR leukemia
SW-620 colon = tested on: SW-620 colon
T-47D breast = tested on: T-47D breast
TK-10 renal = tested on: TK-10 renal
U251 CNS = tested on: U251 CNS
UACC-257 melanoma = tested on: UACC-257 melanoma
UACC-62 melanoma = tested on: UACC-62 melanoma
UO-31 renal = tested on: UO-31 renal

SMILES: COC(=O)CNC(=O)COc1c(OC)c(OC)cc2oc(-c3cccc(C(=O)Nc4ccc(Cl)cc4)c3)cc(=O)c12
- GI50 (786-0 renal): 5.19 µM
- TGI (786-0 renal): 17.2 µM
- GI50 (A498 renal): 16.3 µM
- TGI (A498 renal): 34.5 µM
- GI50 (A549 NSCLC): 7.25 µM
- TGI (A549 NSCLC): 20.6 µM
- GI50 (ACHN renal): 5.84 µM
- TGI (ACHN renal): 18.7 µM
- GI50 (BT-549 breast): 3.05 µM
- TGI (BT-549 breast): 12.3 µM
- GI50 (CAKI-1 renal): 18.9 µM
- TGI (CAKI-1 renal): 41.6 µM
- GI50 (CCRF-CEM leukemia): > 100 µM
- TGI (CCRF-CEM leukemia): > 100 µM
- GI50 (COLO 205 colon): 4.19 µM
- TGI (COLO 205 colon): 17.8 µM
- GI50 (DU-145 prostate): 10.6 µM
- TGI (DU-145 prostate): 28.3 µM
- GI50 (EKVX NSCLC): 12.4 µM
- TGI (EKVX NSCLC): 30.1 µM
- GI50 (HCC-2998 colon): 15.4 µM
- TGI (HCC-2998 colon): 70.8 µM
- GI50 (HCT-116 colon): 13.9 µM
- TGI (HCT-116 colon): 48.5 µM
- GI50 (HCT-15 colon): 14.8 µM
- TGI (HCT-15 colon): > 100 µM
- GI50 (HL-60(TB) leukemia): 13.3 µM
- TGI (HL-60(TB) leukemia): > 100 µM
- GI50 (HOP-62 NSCLC): 3.56 µM
- TGI (HOP-62 NSCLC): 11.5 µM
- GI50 (HOP-92 NSCLC): 4.04 µM
- TGI (HOP-92 NSCLC): 25.9 µM
- GI50 (HS 578T breast): 4.28 µM
- TGI (HS 578T breast): 28.5 µM
- GI50 (HT29 colon): 6.79 µM
- TGI (HT29 colon): > 100 µM
- GI50 (IGROV1 ovarian): 11.4 µM
- TGI (IGROV1 ovarian): 24.8 µM
- GI50 (K-562 leukemia): 25.6 µM
- TGI (K-562 leukemia): > 100 µM
- GI50 (KM12 colon): 27.5 µM
- TGI (KM12 colon): > 100 µM
- GI50 (LOX IMVI melanoma): 5.02 µM
- TGI (LOX IMVI melanoma): 19.5 µM
- GI50 (M14 melanoma): 7.98 µM
- TGI (M14 melanoma): 25 µM
- GI50 (MALME-3M melanoma): 4.75 µM
- TGI (MALME-3M melanoma): 17.7 µM
- GI50 (MCF7 breast): 6.05 µM
- TGI (MCF7 breast): 23.9 µM
- GI50 (MDA-MB-231 breast): 3.57 µM
- TGI (MDA-MB-231 breast): 13 µM
- GI50 (MDA-MB-435): 6.57 µM
- TGI (MDA-MB-435): 21.9 µM
- GI50 (MDA-MB-468 breast): 27.2 µM
- TGI (MDA-MB-468 breast): > 100 µM
- GI50 (MOLT-4 leukemia): > 100 µM
- TGI (MOLT-4 leukemia): > 100 µM
- GI50 (NCI-H226 lung): 4.01 µM
- TGI (NCI-H226 lung): 27.6 µM
- GI50 (NCI-H23 lung): 7.19 µM
- TGI (NCI-H23 lung): 20 µM
- GI50 (NCI-H460 lung): 4.03 µM
- TGI (NCI-H460 lung): 15.1 µM
- GI50 (NCI-H522 lung): 7.22 µM
- TGI (NCI-H522 lung): 20.1 µM
- GI50 (NCI/ADR-RES ovarian): 9.62 µM
- TGI (NCI/ADR-RES ovarian): 73.4 µM
- GI50 (OVCAR-3 ovarian): 12.4 µM
- TGI (OVCAR-3 ovarian): 37.5 µM
- GI50 (OVCAR-4 ovarian): 2950 nM
- TGI (OVCAR-4 ovarian): 10.8 µM
- GI50 (OVCAR-5 ovarian): 7.2 µM
- TGI (OVCAR-5 ovarian): 40.1 µM
- GI50 (OVCAR-8 ovarian): 3.64 µM
- TGI (OVCAR-8 ovarian): 11.8 µM
- GI50 (PC-3 prostate): 10.3 µM
- TGI (PC-3 prostate): 33.7 µM
- GI50 (RPMI-8226 leukemia): 6.51 µM
- TGI (RPMI-8226 leukemia): > 100 µM
- GI50 (RXF 393 renal): 3.54 µM
- TGI (RXF 393 renal): 14.9 µM
- GI50 (SF-268 CNS): 15.1 µM
- TGI (SF-268 CNS): 42.9 µM
- GI50 (SF-295 CNS): 13.9 µM
- TGI (SF-295 CNS): 26.9 µM
- GI50 (SF-539 CNS): 8.6 µM
- TGI (SF-539 CNS): 20.9 µM
- GI50 (SK-MEL-2 melanoma): 10.1 µM
- TGI (SK-MEL-2 melanoma): 25 µM
- GI50 (SK-MEL-28 melanoma): 5.9 µM
- TGI (SK-MEL-28 melanoma): 18.9 µM
- GI50 (SK-MEL-5 melanoma): 3.75 µM
- TGI (SK-MEL-5 melanoma): 14.7 µM
- GI50 (SK-OV-3 ovarian): 11.1 µM
- TGI (SK-OV-3 ovarian): 23.6 µM
- GI50 (SN12C renal): 4.28 µM
- TGI (SN12C renal): 17 µM
- GI50 (SNB-19 CNS): 10.6 µM
- TGI (SNB-19 CNS): 22.4 µM
- GI50 (SNB-75 CNS): 11.9 µM
- TGI (SNB-75 CNS): 37.4 µM
- GI50 (SR leukemia): 9.98 µM
- TGI (SR leukemia): > 100 µM
- GI50 (SW-620 colon): 14 µM
- TGI (SW-620 colon): 69.7 µM
- GI50 (T-47D breast): 8.16 µM
- TGI (T-47D breast): 31.1 µM
- GI50 (TK-10 renal): 16.1 µM
- TGI (TK-10 renal): 34.6 µM
- GI50 (U251 CNS): 4.82 µM
- TGI (U251 CNS): 16.5 µM
- GI50 (UACC-257 melanoma): 7.35 µM
- TGI (UACC-257 melanoma): 24.9 µM
- GI50 (UACC-62 melanoma): 6.1 µM
- TGI (UACC-62 melanoma): 19.4 µM
- GI50 (UO-31 renal): 13.8 µM
- TGI (UO-31 renal): 26.7 µM
